Structures can show the parent of a compound that is named as a salt. Where two headings read alike, the source gives them in different places.

The target of experiment [1] is T1, purified human platelet fibrinogen receptor (GPIIb/IIIa) (Homo sapiens, UniProt P05106+P08514).
T1 construct: is isolated from human platelet lysates; from tissue
Briefly: Test (b): GPIIb/IIIa ELISA, inhibition of biotinylated fibrinogen binding. The conditions noted are these: purified human platelet GPIIb/IIIa, ELISA. The essentials:
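Inhibition of biotinylated fibrinogen ([…]) binding to immobilised human platelet fibrinogen receptor, purified by KYGRGDS peptide affinity chromatography, was measured after 2 h at 30 °C. Readout: streptavidin–biotin-HRP colour with TMB at […]; value expressed as pIC50.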

The target in experiment [2] is T2, human, citrated, platelet-rich plasma (Homo sapiens, UniProt P05106+P08514).
T2 construct: aggregating human, citrated, platelet-rich plasma; endogenous in cells; host or cells: human platelets in citrated platelet-rich plasma
Briefly: Test (a): inhibition of ADP stimulated platelet aggregation (Born). Particulars: ADP induced aggregation of human platelet-rich plasma. It counts as cell-based. The essentials: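 pA2 calculated by comparing ADP EC50-type (50% response) values in presence and absence of compound, averaged across concentrations (generally 10-^5 M to 10-^10 M). Aggregation (Born) induced by ADP in citrated human platelet-rich plasma, giving dose-response curves.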

Setting [3] is: read-out: Test (b): pIC50 (-log(IC50)), 50% inhibition of biotinylated fibrinogen binding to GPIIb/IIIa (converted).
The mark [4] stands for this setting: read-out: Test (a): pA2 value indicating potency of platelet aggregation inhibition (converted).

T1 sequence (P08514 32-887 limits assumed): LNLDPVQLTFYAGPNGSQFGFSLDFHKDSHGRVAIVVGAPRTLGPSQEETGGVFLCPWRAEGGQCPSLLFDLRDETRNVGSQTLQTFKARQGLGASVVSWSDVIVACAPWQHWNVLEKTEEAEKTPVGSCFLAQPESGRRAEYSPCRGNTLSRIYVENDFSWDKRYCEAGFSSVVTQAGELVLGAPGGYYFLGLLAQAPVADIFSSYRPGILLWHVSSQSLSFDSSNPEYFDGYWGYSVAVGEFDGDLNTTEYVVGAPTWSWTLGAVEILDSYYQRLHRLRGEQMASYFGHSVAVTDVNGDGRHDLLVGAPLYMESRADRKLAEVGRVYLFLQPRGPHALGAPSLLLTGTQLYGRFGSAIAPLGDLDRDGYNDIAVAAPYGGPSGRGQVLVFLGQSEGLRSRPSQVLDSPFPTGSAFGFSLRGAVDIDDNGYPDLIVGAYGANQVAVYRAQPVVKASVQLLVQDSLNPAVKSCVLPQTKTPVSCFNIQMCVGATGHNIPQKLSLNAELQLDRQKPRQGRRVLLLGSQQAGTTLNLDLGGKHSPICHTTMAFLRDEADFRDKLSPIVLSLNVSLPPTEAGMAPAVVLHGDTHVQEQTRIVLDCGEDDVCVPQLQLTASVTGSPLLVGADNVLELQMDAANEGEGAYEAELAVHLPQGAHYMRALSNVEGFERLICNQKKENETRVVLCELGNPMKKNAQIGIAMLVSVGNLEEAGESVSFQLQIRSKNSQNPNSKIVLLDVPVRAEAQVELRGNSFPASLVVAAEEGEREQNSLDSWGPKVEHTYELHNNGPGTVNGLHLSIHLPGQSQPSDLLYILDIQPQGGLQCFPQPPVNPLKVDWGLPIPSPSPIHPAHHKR
T1 sequence (P08514 891-1039 limits assumed): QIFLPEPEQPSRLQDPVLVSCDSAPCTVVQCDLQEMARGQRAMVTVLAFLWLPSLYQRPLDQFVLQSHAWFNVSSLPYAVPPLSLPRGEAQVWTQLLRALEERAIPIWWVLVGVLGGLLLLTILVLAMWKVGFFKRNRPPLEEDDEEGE
T1 sequence (P05106 27-788): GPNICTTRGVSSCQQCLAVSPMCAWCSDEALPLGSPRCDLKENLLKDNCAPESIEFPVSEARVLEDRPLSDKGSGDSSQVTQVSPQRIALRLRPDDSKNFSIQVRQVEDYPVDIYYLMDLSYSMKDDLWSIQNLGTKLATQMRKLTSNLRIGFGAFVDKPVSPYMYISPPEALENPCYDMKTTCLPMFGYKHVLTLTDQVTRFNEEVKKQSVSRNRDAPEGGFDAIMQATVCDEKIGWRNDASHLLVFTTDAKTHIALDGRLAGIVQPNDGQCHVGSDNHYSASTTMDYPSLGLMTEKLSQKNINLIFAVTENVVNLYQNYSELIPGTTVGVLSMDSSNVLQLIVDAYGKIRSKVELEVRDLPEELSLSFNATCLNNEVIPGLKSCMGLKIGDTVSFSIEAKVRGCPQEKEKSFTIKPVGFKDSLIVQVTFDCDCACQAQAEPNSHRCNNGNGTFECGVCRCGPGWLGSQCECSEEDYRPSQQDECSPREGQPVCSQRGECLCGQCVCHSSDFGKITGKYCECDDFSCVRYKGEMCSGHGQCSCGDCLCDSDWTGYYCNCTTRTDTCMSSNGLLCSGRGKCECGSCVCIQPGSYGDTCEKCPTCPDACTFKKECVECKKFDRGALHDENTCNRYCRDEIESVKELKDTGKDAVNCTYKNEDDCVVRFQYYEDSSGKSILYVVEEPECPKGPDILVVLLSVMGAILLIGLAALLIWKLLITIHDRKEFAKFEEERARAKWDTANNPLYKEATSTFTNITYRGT
T2 sequence (P08514 32-887 limits assumed): as the sequence (P08514 32-887 limits assumed) above
T2 sequence (P08514 891-1039 limits assumed): as the sequence (P08514 891-1039 limits assumed) above
T2 sequence (P05106 27-788): as the sequence (P05106 27-788) above

With `Cc1ccc(S(=O)(=O)NCc2ccc(NC(=O)C3CCN(c4ccncc4)CC3)cc2)cc1` [Example 171, N-[4[4-[1-(4-Pyridyl)piperidin-4yl]carboxyamidophenyl]methyl]-4-methylphenylsulphonamide], the IC50 in experiment [1] (setting [3]) is over 100000 nM. Also, the Kb in experiment [2] (setting [4]) is 6310 nM.
`COC(=O)COc1ccc(OCCC2CCN(c3ccncc3)CC2)cc1` [Example 159, Methyl 4-[2-[1-(4-pyridyl)piperidin-4-yl]ethoxy]phenoxyacetate]: the IC50 in experiment [1] (setting [3]) is 2000 nM. Moreover, the Kb in experiment [2] (setting [4]) is 501 nM.
Take `CCCCS(=O)(=O)NCc1ccc(NC(=O)C2CCN(c3ccncc3)CC2)cc1` [Example 170, N-[4-[4-[1-(4-Pyridyl)piperidin-4-yl]carboxamidophenyl]-methyl]-1-butanesulphonamide]: the IC50 in experiment [1] (setting [3]) is over 100000 nM. Also, in experiment [2] (setting [4]), the Kb is 15800 nM.
Taken in the same sequence, the figures for `O=C(O)CC1CCN(C(=O)CN2CCN(c3ccncc3)CC2)CC1` [Example 30, 2-[1-[2-[4-(4-Pyridyl)piperazin-1-yl]acetyl]piperidin-4-yl]acetic acid] were 1260 nM and 5010 nM.
For the compound `O=C(O)COc1ccc(OCCC2CCN(c3ccncc3)CC2)cc1` [Example 160, 4-[2-[1-(4-Pyridyl)piperidin-4-yl]ethoxy]phenoxyacetic acid], the IC50 in experiment [1] (setting [3]) was 15.8 nM. The Kb in experiment [2] (setting [4]) is 794 nM.
As for `CCCCS(=O)(=O)N[C@@H](Cc1ccc(OC2CCN(c3ccncc3)CC2)cc1)C(=O)OC` [Example 37, Methyl 2-S-(n-butylsulphonylamino)-3-[4-[1-(4-pyridyl)piperidin-4-yl]oxyphenyl]propionate], in experiment [1] (setting [3]), the IC50 was 200 nM. The Kb in experiment [2] (setting [4]) was 2510 nM.
`COC(=O)COc1ccc(C(=O)CN2CCN(c3ccncc3)CC2=O)cc1` [Example 61, Methyl 4-[2-[4-(4-pyridyl)piperazin-2-one-1-yl]acetyl]phenoxyacetate]: in experiment [1] (setting [3]), the IC50 is 200 nM. Moreover, the Kb in experiment [2] (setting [4]) is 31.6 nM.
Turning to `COC(=O)COc1ccc(NC(=O)CC2CCN(c3ccncc3)CC2)cc1` [Example 165], the IC50 in experiment [1] (setting [3]) is 20000 nM. In experiment [2] (setting [4]), the Kb was 1260 nM.
With `O=C(O)COc1ccc(C(=O)CN2CCN(c3ccncc3)CC2)cc1OCC(=O)O` [Example 4, 2,2'-[4-[2-[4-(4-Pyridyl)piperazin-1-yl]acetyl]phenylene-1,2-dioxy]diaceticacid], in experiment [1] (setting [3]), the IC50 is 0.794 nM. The Kb in experiment [2] (setting [4]) is 1.26 nM.
For `CCCCS(=O)(=O)NCCc1ccc(C(=O)CN2CCN(c3ccncc3)CC2)cc1` [Example 24, N-[2-[4-[2-[4-(4-Pyridyl)piperazin-1-yl]acetyl]phenyl]ethyl]-1-butanesulphonamide], in experiment [1] (setting [3]), the IC50 is 31600 nM. In addition, the Kb in experiment [2] (setting [4]) is 2000 nM.
For the compound `O=C(O)C1CCCN(C(=O)c2ccc(N3CCN(c4ccncc4)CC3)cc2)C1` (centres unmarked) [Example 235, 4-[(4-Pyridyl)piperazin-1-yl]benzoylnipecotic acid], the IC50 in experiment [1] (setting [3]) was 200 nM. In addition, the Kb in experiment [2] (setting [4]) is 6310 nM.
Taken in the same sequence, the figures for `COC(=O)COc1ccc(C(=O)CN2CCN(c3cc(C)nc4ccccc34)CC2)cc1` [Example 41, Methyl 4-[2-[4-(2-methyl-4-quinolinyl)piperazin-1-yl]acetyl]phenoxyacetate] were over 100000 nM and over 100000 nM.
With `CCCCS(=O)(=O)N[C@H](Cc1ccc(OCC2CCN(c3ccncc3)CC2)cc1)C(=O)OC` [Example 100, Methyl 2-R-(n-butylsulphonylamino)-3-[4-[1-(4-pyridyl)piperidin-4-yl]methoxyphenyl]propionate], the IC50 in experiment [1] (setting [3]) is 3980 nM. Also, the Kb in experiment [2] (setting [4]) was 39800 nM.
Taken in the same sequence, the figures for `Cc1cc(N2CCN(CC(=O)c3ccc(OCC(=O)O)cc3)CC2)cc(C)n1` [Example 154, 4-[2-[4-(2,6-Dimethylpyrid-4-yl)piperazin-1-yl]actyl]phenoxyacetic acid, dihydrobromide] were 2510 nM and 10000 nM.
As to `O=C(O)COc1ccc(C(=O)CN2CCN(c3ccncc3)CC2=O)cc1` [Example 62, 4-[2-[4-(4-Pyridyl)piperazin-2-one-1-yl]acetyl]phenoxyacetic acid], in experiment [1] (setting [3]), the IC50 is 7.94 nM. Besides, the Kb in experiment [2] (setting [4]) is 2.51 to 12.6 nM.
Turning to `Cc1cc(OCC(=O)O)ccc1C(=O)CN1CCN(c2ccncc2)CC1` [Example 125, 4-[2-[4-(4-Pyridyl)piperazin-1-yl]acetyl]-3-methylphenoxyacetic acid, dihydrochloride], in experiment [1] (setting [3]), the IC50 is 15.8 nM. In addition, in experiment [2] (setting [4]), the Kb is 158 nM.
Taken in the same sequence, the figures for `CCCCS(=O)(=O)N[C@H](Cc1ccc(OCC2CCN(c3ccncc3)CC2)cc1)C(=O)O` [Example 101] were 31.6 nM and 501 nM.
Take `CCCCS(=O)(=O)NC(Cc1ccc(C(=O)CN2CCN(c3ccncc3)CC2)cc1)C(=O)O` (racemic) [Example 67, 2-RS-(n-Butylsulphonylamino)-3-[4-[2-[4-(4-pyridyl)piperazine-1-yl]acetyl]phenyl]propionic acid]: the IC50 in experiment [1] (setting [3]) was 3.16 nM. Besides, in experiment [2] (setting [4]), the Kb was 2.51 nM.
For the compound `Cc1ccc(S(=O)(=O)NCCc2ccc(NC(=O)C3CCN(c4ccncc4)CC3)cc2)cc1` [Example 184, N-[2-[4-[1-(4-Pyridyl)piperidin-4-yl]carboxamidophenyl]ethyl]-4-methylphenylsulphonamide], in experiment [1] (setting [3]), the IC50 was over 100000 nM. In addition, the Kb in experiment [2] (setting [4]) is 5010 nM.
For `COC(=O)[C@H](Cc1ccc(OCCC2CCN(c3ccncc3)CC2)cc1)NS(C)(=O)=O` [Example 85, Methyl 2-S-(methsulphonylamino)-3-[4-[2-[1-(4-pyridyl)piperidin-4-yl]ethoxy]phenyl]propionate], in that order: 251 nM and 1580 nM.
For `COc1cc(C(=O)CN2CCN(c3ccncc3)CC2)ccc1OCC(=O)O` [Example 6, 4-[2-[4-(4-Pyridyl)piperazin-1-yl]acetyl]-2-methoxyphenoxyacetic acid], the IC50 in experiment [1] (setting [3]) is 25.1 nM. Besides, the Kb in experiment [2] (setting [4]) was 63.1 nM.
Turning to `COC(=O)COc1ccc(OC2CCN(c3ccncc3)CC2)cc1` [Example 155, Methyl 4-[1-(4-pyridyl)piperidin-4-yl]oxyphenoxyacetate], in experiment [1] (setting [3]), the IC50 was over 100000 nM. Also, the Kb in experiment [2] (setting [4]) is 3160 nM.
Regarding `CCOC(=O)C=CCOc1ccc(N2CCN(c3ccncc3)CC2)cc1` [Example 54, Ethyl 4-[4-(4-pyridyl)piperazin-1-yl]phenoxycrotonate], the IC50 in experiment [1] (setting [3]) is over 100000 nM. Also, the Kb in experiment [2] (setting [4]) was 15800 nM.
Turning to `CN(C)c1ccncc1CCCOc1ccc(OCCCC(=O)O)cc1` [Example 224, 4-[4-[3-(4-dimethylaminopyrid-3-yl)propyloxy]phenoxy]butyric acid], the IC50 in experiment [1] (setting [3]) was 501 nM. In addition, the Kb in experiment [2] (setting [4]) is 31600 nM.
For `CS(=O)(=O)N[C@@H](Cc1ccc(OCCC2CCN(c3ccncc3)CC2)cc1)C(=O)O` [Example 88, 2-S-(Methylsulphonylamino)-3-[4-[2-[1-(4-pyridyl)piperidin-4-yl]ethoxy]phenyl]propionic acid], in experiment [1] (setting [3]), the IC50 is 2.51 nM. In experiment [2] (setting [4]), the Kb is 1 nM.
Turning to `CC(C)(C)OC(=O)COc1ccc(CC(=O)N2CCN(c3ccncc3)CC2)cc1` [Example 149, Tertiary butyl 4-[2-[4-(4-pyridyl)piperazin-1-yl]carbonylmethyl]-phenoxyacetate], in experiment [1] (setting [3]), the IC50 was 20000 nM. The Kb in experiment [2] (setting [4]) was 20000 nM.
For `O=C(O)CCCOc1cccc(N2CCN(c3ccncc3)CC2)c1` [Example 227, 3-[4-(4-Pyridyl)piperazin-1-yl]phenoxybutyric acid], the IC50 in experiment [1] (setting [3]) is 100 nM. Besides, the Kb in experiment [2] (setting [4]) is 2510 nM.
With `COC(=O)COc1ccc(C(=O)CN2CCN(c3ccnc4c3CCCC4)CC2)cc1` [Example 45, Methyl 4-[2-[4-(5,6,7,8-tetrahydro-4-quinolinyl)piperazin-1-yl]-acetyl]phenoxyacetate], the IC50 in experiment [1] (setting [3]) was 794 nM. Moreover, the Kb in experiment [2] (setting [4]) was 3980 nM.
With `COC(=O)c1cc2cc(C(=O)CN3CCN(c4ccncc4)CC3)ccc2o1` [Example 25, Methyl 5-[2-[4-(4-pyridyl)piperazin-1-yl]acetyl]benzofuran-2-carboxylate], the IC50 in experiment [1] (setting [3]) was 15800 nM. Also, in experiment [2] (setting [4]), the Kb is 7940 nM.
For the compound `COC(=O)COc1ccc(C(=O)CN2CCN(c3ccncc3)CC2)cc1OCC(=O)OC` [Example 3], in experiment [1] (setting [3]), the IC50 is 251 nM. In addition, in experiment [2] (setting [4]), the Kb is 501 nM.
As to `COC(=O)[C@H](Cc1ccccc1)NC(=O)c1ccc(N2CCN(c3ccncc3)CC2)cc1` [Example 190, N[4-[(4-Pyridyl)piperazin-1-yl]benzoyl]-L-phenylalanine, methyl ester], the IC50 in experiment [1] (setting [3]) is 20000 nM. For the same compound, in experiment [2] (setting [4]), the Kb was 63100 nM.
As for `O=C(O)COc1ccc2c(CN3CCN(c4ccncc4)CC3)cccc2c1` [Example 76, 5-[[4-(4-Pyridyl)piperazin-1-yl]methylene]naphth-2-yloxyacetic acid], the IC50 in experiment [1] (setting [3]) was 1260 nM. Further, the Kb in experiment [2] (setting [4]) was 31600 nM.
`COC(=O)COc1ccc(C(=O)C(C)N2CCN(c3ccncc3)CC2)cc1` (racemic) [Example 16, (RS) Methyl 4-[2-[4-(4-pyridyl)piperazin-1-yl]-2-methylacetyl]phenoxyacetate] showed an IC50 in experiment [1] (Test (b): pIC50 (-log(IC50)), 50% inhibition of biotinylated fibrinogen binding to GPIIb/IIIa) of 200 nM. In experiment [2] (Test (a): pA2 value indicating potency of platelet aggregation inhibition), this compound had a Kb of 158 nM.
With `CN(Cc1ccc(-c2ccc(OCC(=O)O)cc2)cc1)c1ccncc1` [Example 75, 4-[4'-[N-Methyl-N-(4-pyridyl)]aminomethyl]biphenyloxyacetic acid], in experiment [1] (setting [3]), the IC50 is 3980 nM. Also, in experiment [2] (setting [4]), the Kb is 31600 nM.

The values above are taken from patent US5750754A, “Heterocyclic compounds” (Zeneca Limited, priority 1993, dated 1998).
